From ChEMBL document CHEMBL1151418, “Breviane spiroditerpenoids from an extreme-tolerant Penicillium sp. isolated from a deep sea sediment sample” (J Nat Prod, 2009) come the findings set out here.

Structures can show the parent of a compound that is named as a salt.

Data set [1] relates to HeLa. Put plainly: Growth inhibition of human HeLa cells at 10 ug/mL after 4 hrs by MTT assay. The format is functional. Particulars: read-out: GI. In general terms: Formazan colour is commonly taken as a measure of viable cells.
Data set [2] is described as follows: Cytotoxicity against human C8166 cells after 4 days by MTT assay. The format is cell-based.
Data set [3] has as its system HIV-1 M:B_Lai. Put plainly: Antiviral activity against HIV-1 M:B_Lai replication in human C8166 cells assessed as inhibition of p24 antigen expression level after 4 days by ELISA. Format: functional, organism-based. Particulars: Human immunodeficiency virus 1, LAI, C8166, 96 h. (In an ELISA, binding on a coated surface is turned into a signal by an enzyme label.)

`CC1=CC(=O)C=C[C@]2(C)[C@H]3[C@@H](O)C=C(C)[C@@]4(Cc5c(c(C)c(C)oc5=O)O4)[C@]3(C)CC[C@@H]12` [BREVIONE F]: the inhibition of growth at 10 µg/mL in data set [1] came out at 25.2%. The CC50 (usually the concentration at which the toxic effect on the cells reaches its halfway point) at 96 h in data set [2] is greater than 100 µM. Also, the EC50 (in general, the concentration giving half of the maximal effect) in data set [3] came to 14.7 µM.
For `CC1=CC(=O)C=C[C@]2(C)[C@H]3[C@H](O)C=C(C)[C@@]4(Cc5c(c(C)c(C)oc5=O)O4)[C@]3(C)CC[C@@H]12` [BREVIONE G], the inhibition of growth at 10 µg/mL in data set [1] is 44.9%. Also, the concentration giving a half-maximal response (EC50) in data set [3] was greater than 50 µM.
For `CC1=CC(=O)C[C@@H]2O[C@@H]3C=C(C)[C@@]45Oc6c(C)c(C)oc(=O)c6[C@@H]4O[C@H](O)[C@]54CC[C@@H]1[C@@]2(C)[C@@H]34` [BREVIONE H] the same measures were 25.3% and greater than 50 µM.
Regarding `CC(C)(C)NC(=O)[C@@H]1CN(Cc2cccnc2)CCN1C[C@@H](O)C[C@@H](Cc1ccccc1)C(=O)N[C@H]1c2ccccc2C[C@H]1O` [INDINAVIR SULFATE], in data set [3], the EC50 is 0.00871 µM.
